Data set [1] concerns the target T1, KDR (h) (Homo sapiens, UniProt P35968).
T1 construct: host or cells: E. coli BL21-derived host (T7 phage) or HEK-293
Nature of the data set: KINOMEscan competition binding assay, KDR (h). The procedure: (§1) Alternatively, the kinase activities of the compounds can be measured using KINOMEscan™, which is based on a competition binding assay that quantitatively measures the ability of a compound to compete with an immobilized, active-site directed ligand. The assay was performed by combining three components: DNA-tagged kinase; immobilized ligand; and a test compound. The ability of the test compound to compete with the immobilized ligand was measured via quantitative PCR of the DNA tag.
(§2) For most assays, kinase-tagged T7 phage strains were prepared in an E. coli host derived from the BL21 strain. E. coli were grown to log-phase and infected with T7 phage and incubated with shaking at 32° C. until lysis. The lysates were centrifuged and filtered to remove cell debris. The remaining kinases were produced in HEK-293 cells and subsequently tagged with DNA for qPCR detection. Streptavidin-coated magnetic beads were treated with biotinylated small molecule ligands for 30 minutes at room temperature to generate affinity resins for kinase assays. The liganded beads were blocked with excess biotin and washed with blocking buffer (SEABLOCK™ (Pierce), 1% BSA, 0.05% TWEEN®20, 1 mM DTT) to remove unbound ligand and to reduce nonspecific binding. Binding reactions were assembled by combining kinases, liganded affinity beads, and test compounds in 1× binding buffer (20% SEABLOCK™, 0.17×PBS, 0.05% TWEEN®20, 6 mM DTT). All reactions were performed in polystyrene 96-well plates in a final volume of 0.135 mL. The assay plates were incubated at room temperature with shaking for 1 hour and the affinity beads were washed with wash buffer (1×PBS, 0.05% TWEEN®20). The beads were then re-suspended in elution buffer (1×PBS, 0.05% TWEEN®20, 0.5 μM non-biotinylated affinity ligand) and incubated at room temperature with shaking for 30 minutes. The kinase concentration in the eluates was measured by qPCR.
(§3) The kinase assays described herein were performed using KINOMEscan™ Profiling Service at DiscoveRx Corporation, 42501 Albrae St. Fremont, Calif.

Data set [2] is described as follows: Compound stability in human liver microsomes. The format is in vitro ADME. The settings on record: pH 7.4. The protocol: (§4) Human or rat liver microsomes incubations were conducted in duplicate in polypropylene tubes. The typical incubation mixtures consisted of human liver microsomes (0.5 mg protein/mL), compounds of interest (5 μM) and NADPH (1.0 mM) in a total volume of 200 μL potassium phosphate buffer (PBS, 100 mM, pH 7.4). Compounds were dissolved in DMSO and diluted with PBS such that the final concentration of DMSO was 0.05%. The enzymatic reactions were commenced with the addition of protein after a 3-min preincubation and incubated in a water bath open to the air at 37° C. Reactions were terminated at various time points (0, 5, 10, 15, 30, 60 min) by adding equal volume of ice-cold acetonitrile. The samples were stored at −80° C. until LC/MS/MS assays.
(§5) The concentrations of compounds in the incubation mixtures of human liver microsomes were determined by a LC/MS/MS method. The ranges of the linearity in the concentration range were determined for each tested compounds.
(§6) A parallel incubation was performed using denatured microsomes as the negative control, and reactions were terminated at various time points (0, 15, 60 min) after incubation at 37° C.
(§7) Dextromethorphan (70 μM) was selected as the positive control, and reactions were terminated at various time points (0, 5, 10, 15, 30, 60 min) after incubation at 37° C. Both positive and negative control samples were included in each assay to ensure the integrity of the microsomal incubation system.
(§8) The concentrations of compounds in human liver microsome incubations were plotted as a percentage of the relevant zero time point control for each reaction. The in vivo CLint were extrapolated (ref: Naritomi Y, Terashita S, Kimura S, Suzuki A, Kagayama A, Sugiyama Y. Prediction of human hepatic clearance from in vivo animal experiments and in vitro metabolic studies with liver microsomes from animals and humans. Drug Metabolism and Disposition 2001, 29: 1316-1324.)
On the technique in general: Microsomes from liver hold many membrane-bound enzymes, among them those of drug oxidation.

For data set [3], the target named is T2, c-Met (h) (Homo sapiens, UniProt P08581).
T2 construct: host or cells: E. coli BL21-derived host (T7 phage) or HEK-293
Nature of the data set: KINOMEscan competition binding assay, c-Met (h). The protocol:
as §1, §2, §3

Data set [4] can be described thus: Pharmacokinetics after intravenous and oral administration in rats. The format is in vivo. The settings on record: for F: oral bioavailability, oral dose not given; for AUC(0-t) / half-life / Vd: rat, plasma; for clearance (CL) after iv dosing / AUC(0-t) / half-life / Vd: iv dosing; for Vd: read-out: Vss. The procedure:
The compounds disclosed herein are assessed in pharmacokinetic studies in mice, rats, dogs or monkeys. The compounds are administered as a water solution, 2% HPMC+1% TWEEN®80 in water solution, 5% DMSO+5% solutol in saline, 4% MC suspension or capsule. For the intravenous administration, the animals are generally given at 1 or 2 mg/kg dose. For the oral (p.o.) dosing, mice and rats are generally given 5 or 10 mg/kg dose, and dogs and monkeys are generally given 10 mg/kg dose. The blood samples (0.3 mL) are drawn at 0.25, 0.5, 1.0, 2.0, 3.0, 4.0, 6.0, 8.0, 12 and 24 h time points or 0.083, 0.25, 0.5, 1.0, 2.0, 4.0, 6.0, 8.0 and 24 h time points and centrifuged at 3,000 or 4000 rpm for 2 to 10 min. The plasma solutions are collected, stored at −20° C. or −70° C. until analyzed by LC/MS/MS as described above.

Data set [5] is described as follows: Compound stability in rat liver microsomes. The format is in vitro ADME. The protocol: as §4, §5, §6, §7, §8
The next data set deals with U87MG glioblastoma cells. Nature of the data set: U87MG tumor xenograft model, tumor growth inhibition. It is filed as in vivo, athymic nude mice (BALB/cA nu/nu). The settings on record: mice, oral gavage, 16 days. The procedure: The efficacy of compounds disclosed herein was evaluated in a standard murine model of tumorigenesis. Human tumor cells (U87MG glioblastoma cells from ATCC) were expended in culture, harvested, and injected subcutaneously onto the rear flank of 6-7 week old female athymic nude mice (BALB/cA nu/nu, Hunan SLAC Laboratory Animal, Co.) (n=6-10 for vehicle group and for each dosing group). When tumors reached a volume of 100-250 mm^3, animals were randomly divided into vehicle control (for example, 5% DMSO+70% Captisol® (30%), 7% HCl (pH1), 18% Captisol® (30%); or 7% DMSO, 7% HCl (pH1), 70% Captisol® (30%), 16% Captisol® (30%), or the like) and compound groups. Subsequent administration of compound by oral gavage begins anywhere from day 0 to day 15 post tumor cell challenge and generally continues with once a day for the duration of the experiment.
Progression of tumor growth is assessed by tumor volumes and recorded as a function of time. The long (L) and short (W) axes of the subcutaneous tumors were measured with calipers twice weekly, and the tumor volume (TV) calculated as (L×W^2)/2). TGI was calculated from the difference between the median tumor volumes of vehicle-treated and drug-treated mice, expressed as a percentage of the median tumor volume of the vehicle-treated control group, by the following relation:
[formula] Initial statistical analysis is done by repeated measures analysis of variance (RMANOVA), followed by Scheffe psot hoc testing for multiple comparisons. Vehicle alone (5% DMSO+70% Captisol® (30%), 7% HCl (pH1), 18% Captisol® (30%); or 7% DMSO, 7% HCl (pH1), 70% Captisol® (30%), 16% Captisol® (30%), or the like) is the negative control.

For data set [6], the target named is T2, c-Met (h). Put plainly: c-Met (h) kinase assay (IC50). Conditions: cells marked (IC50) in the Kd table. The format is biochemical. The protocol:
(§9) The above assay procedure can be used to determine the IC50 for inhibition and/or the inhibition constant, Ki. The IC50 is defined as the concentration of compound required to reduce the enzyme activity by 50% under the condition of the assay. The IC50 value is estimated by preparing a 10 point curve using a ½ log dilution series (for example, a typical curve may be prepared using the following compound concentrations; 100 μM, 30 μM, 10 μM, 3 μM, 1 μM, 0.3 μM, 0.1 μM, 0.03 μM, 0.01 μM and 0 μM).
(§10) (specific activity approx. 500 cpm/pmol, concentration as required).
(§11) The kinase assays described herein can be performed at Millipore UK Ltd, Dundee Technology Park, Dundee DD2 1SW, UK c-Met (h) Assay.

Data set [7] concerns the target T1, KDR (h). Nature of the data set: KDR (h) (VEGF-R2 (h)) kinase assay (IC50). The format is biochemical. The settings on record: cells marked (IC50) in the Kd table. The protocol: as §9
KDR (h) (VEGF-R2 (h)) Assay
as §10, §11

Broadly, the Kd is a measure of binding affinity in units of concentration. Usually CLint scaled stands for the capacity of the preparation to metabolise the compound, expressed as a volume cleared per time. As a reminder, the AUC(0-t) is the area under the concentration-time curve up to a stated or last time point. Low values mean low exposure, high ones high exposure. By IC50 is commonly meant the midpoint of a concentration-inhibition curve.

Structures are written as SMILES. Like-named read-outs stand apart in the source and are kept apart here. Bounds are passed on as bounds.

T1 sequence (P35968 20-1356): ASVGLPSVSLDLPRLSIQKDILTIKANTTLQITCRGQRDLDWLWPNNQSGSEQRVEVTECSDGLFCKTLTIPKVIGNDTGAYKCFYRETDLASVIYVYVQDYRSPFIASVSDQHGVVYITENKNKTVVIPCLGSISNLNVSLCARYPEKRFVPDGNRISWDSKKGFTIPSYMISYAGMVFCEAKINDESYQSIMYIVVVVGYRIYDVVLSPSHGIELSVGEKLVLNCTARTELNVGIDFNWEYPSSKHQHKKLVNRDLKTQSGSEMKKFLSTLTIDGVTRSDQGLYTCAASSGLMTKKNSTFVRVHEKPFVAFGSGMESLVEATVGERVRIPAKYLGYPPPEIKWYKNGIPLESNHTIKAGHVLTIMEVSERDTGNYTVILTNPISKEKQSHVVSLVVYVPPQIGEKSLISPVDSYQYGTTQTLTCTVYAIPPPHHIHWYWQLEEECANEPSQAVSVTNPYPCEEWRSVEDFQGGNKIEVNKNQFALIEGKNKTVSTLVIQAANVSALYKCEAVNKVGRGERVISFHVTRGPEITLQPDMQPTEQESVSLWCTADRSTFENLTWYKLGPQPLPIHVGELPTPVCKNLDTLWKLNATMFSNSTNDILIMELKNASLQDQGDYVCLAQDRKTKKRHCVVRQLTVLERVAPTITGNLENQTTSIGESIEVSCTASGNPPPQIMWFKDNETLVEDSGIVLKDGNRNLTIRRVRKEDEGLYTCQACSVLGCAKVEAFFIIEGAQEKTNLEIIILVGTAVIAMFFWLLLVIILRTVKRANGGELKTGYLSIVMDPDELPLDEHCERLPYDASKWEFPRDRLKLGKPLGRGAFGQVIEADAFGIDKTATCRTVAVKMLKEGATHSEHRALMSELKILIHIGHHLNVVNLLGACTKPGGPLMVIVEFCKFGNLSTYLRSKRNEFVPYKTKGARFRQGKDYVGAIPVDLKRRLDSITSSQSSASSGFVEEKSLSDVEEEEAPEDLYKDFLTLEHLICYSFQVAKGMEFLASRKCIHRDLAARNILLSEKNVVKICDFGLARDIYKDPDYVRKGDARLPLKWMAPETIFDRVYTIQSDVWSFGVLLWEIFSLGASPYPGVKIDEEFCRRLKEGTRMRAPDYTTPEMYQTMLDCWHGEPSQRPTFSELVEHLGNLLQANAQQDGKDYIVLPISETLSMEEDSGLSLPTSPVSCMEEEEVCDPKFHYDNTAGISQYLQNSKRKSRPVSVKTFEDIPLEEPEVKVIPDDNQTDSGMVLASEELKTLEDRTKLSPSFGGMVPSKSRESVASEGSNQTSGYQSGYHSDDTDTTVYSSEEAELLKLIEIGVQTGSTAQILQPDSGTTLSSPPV
T2 sequence (P08581 25-1390): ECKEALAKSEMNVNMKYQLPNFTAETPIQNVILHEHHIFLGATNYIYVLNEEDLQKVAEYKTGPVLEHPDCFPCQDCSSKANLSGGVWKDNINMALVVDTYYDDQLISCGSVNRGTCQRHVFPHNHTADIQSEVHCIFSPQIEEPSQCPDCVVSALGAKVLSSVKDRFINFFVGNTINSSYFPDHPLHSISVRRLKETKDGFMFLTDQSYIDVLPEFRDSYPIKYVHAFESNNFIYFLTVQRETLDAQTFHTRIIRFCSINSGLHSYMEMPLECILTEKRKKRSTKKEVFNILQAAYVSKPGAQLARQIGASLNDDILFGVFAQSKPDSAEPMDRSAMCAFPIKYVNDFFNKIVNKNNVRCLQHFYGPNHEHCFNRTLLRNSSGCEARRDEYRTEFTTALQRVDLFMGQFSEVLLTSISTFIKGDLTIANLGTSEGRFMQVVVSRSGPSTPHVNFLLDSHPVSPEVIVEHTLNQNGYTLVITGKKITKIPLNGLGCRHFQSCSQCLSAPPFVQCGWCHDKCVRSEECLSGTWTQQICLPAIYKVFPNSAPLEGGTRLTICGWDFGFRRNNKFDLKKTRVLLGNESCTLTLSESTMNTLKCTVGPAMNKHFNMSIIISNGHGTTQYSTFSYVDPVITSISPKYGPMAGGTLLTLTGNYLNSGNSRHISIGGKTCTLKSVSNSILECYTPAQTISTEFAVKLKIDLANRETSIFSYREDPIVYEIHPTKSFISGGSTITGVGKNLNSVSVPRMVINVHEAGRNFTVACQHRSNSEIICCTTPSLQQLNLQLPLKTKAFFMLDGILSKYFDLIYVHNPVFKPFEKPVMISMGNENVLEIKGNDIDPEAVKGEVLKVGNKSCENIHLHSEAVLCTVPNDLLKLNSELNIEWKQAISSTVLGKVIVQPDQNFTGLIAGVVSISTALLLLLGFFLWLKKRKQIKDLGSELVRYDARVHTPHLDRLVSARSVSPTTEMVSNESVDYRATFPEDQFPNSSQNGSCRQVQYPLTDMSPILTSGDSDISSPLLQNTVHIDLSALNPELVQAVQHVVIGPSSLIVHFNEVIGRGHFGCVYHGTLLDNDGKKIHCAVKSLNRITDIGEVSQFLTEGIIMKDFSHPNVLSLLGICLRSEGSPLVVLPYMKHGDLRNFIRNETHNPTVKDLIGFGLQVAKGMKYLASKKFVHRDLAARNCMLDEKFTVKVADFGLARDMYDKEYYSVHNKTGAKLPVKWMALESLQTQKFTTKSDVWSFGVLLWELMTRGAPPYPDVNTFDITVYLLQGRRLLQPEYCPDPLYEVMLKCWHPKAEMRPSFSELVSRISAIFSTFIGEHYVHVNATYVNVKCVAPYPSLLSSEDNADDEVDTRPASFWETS

For the molecule `Cc1c(C(=O)Nc2ccc(Oc3ccnc(N)c3Cl)c(F)c2)c(=O)n(-c2ccccc2)n1C` [Ex. 3, N-(4-((2-amino-3-chloropyridin-4-yl)oxy)-3-fluorophenyl)-1,5-dimethyl-3-oxo-2-phenyl-2,3-dihydro-1H-pyrazole-4-carboxamide], the values for the Kd on KDR (h) [1] and on c-Met (h) [3] were 23 nM and 4.4 nM, respectively. Further, the half-life at 5 μM in data set [2] (human liver microsomes 0.5 mg protein/mL, compound 5 μM, NADPH, 37° C., read-out: Human T1/2) was 12.4 h; in data set [5] (pH 7.4, compound 5 μM, NADPH, 37° C., read-out: Rat T1/2), 1.02 h. For the same molecule, the CLint scaled at 5 μM in data set [2] (human liver microsomes, in vivo CLint extrapolated) was 2.34 mL/min/kg; in data set [5] (pH 7.4, in vivo CLint extrapolated), 40.6 mL/min/kg. For the same molecule, the “clearance (CL) after iv dosing” value in data set [4] (1 mg/kg) was 17 mL/min/kg. The F in data set [4] (iv dose 1 mg/kg) came out at 177.1%. This molecule also gave an AUC(0-t) in data set [4] (1 mg/kg) of 922 ng·h/mL. In data set [4] (1 mg/kg), this molecule gave a half-life of 2.69 h. In data set [4] (1 mg/kg), the Vd was determined as 1.61 L/kg. In addition, the “TGI % (on last day of dosing)” value in the data set with U87MG glioblastoma cells (10 mg/kg) was found to be 53%; in the data set with U87MG glioblastoma cells (20 mg/kg), 68%; in the data set with U87MG glioblastoma cells (40 mg/kg), 85%.
As for `Cc1c(C(=O)Nc2ccc(Oc3ccnc(N)c3)c(F)c2)c(=O)n(-c2ccccc2)n1C` [Ex. 22, N-(4-((2-aminopyridin-4-yl)oxy)-3-fluorophenyl)-1,5-dimethyl-3-oxo-2-phenyl-2,3-dihydro-1H-pyrazole-4-carboxamide], the IC50 against c-Met (h) [6] was 84 nM. Moreover, at KDR (h) [7], the IC50 was more than 3000 nM. In addition, in data set [4] (2 mg/kg), the “clearance (CL) after iv dosing” value worked out at 13.3 mL/min/kg, the AUC(0-t) was found to be 2510 ng·h/mL, the half-life was 0.72 h and the Vd amounted to 0.56 L/kg. For the same molecule, in data set [4] (iv dose 2 mg/kg), the F is given as 78.1%.
On c-Met (h) [6], `Cc1c(C(=O)Nc2ccc(Oc3ccnc(N)c3)cc2)c(=O)n(-c2ccccc2)n1C` [Ex. 1, N-(4-((2-aminopyridin-4-yl)oxy)phenyl)-1,5-dimethyl-3-oxo-2-phenyl-2,3-dihydro-1H-pyrazole-4-carboxamide] had an IC50 of 611 nM. Besides, the IC50 at KDR (h) [7] is more than 3000 nM. Also, in data set [4] (1 mg/kg), the “clearance (CL) after iv dosing” value came to 23.7 mL/min/kg, the AUC(0-t) turned out to be 706 ng·h/mL, the half-life is 1.13 h and the Vd was 0.68 L/kg. This molecule gave a F in data set [4] (iv dose 1 mg/kg) of 31.2%.
